In patent US12247087B2, “Biological active peptide for improving enzyme activity of ACE2 and application thereof” (priority 2023, dated 2025):
Peptide text beside a SMILES is read from it.

Experiments:
[1] = molecular target: T1, novel coronavirus S protein-ACE2 protein binding (Homo sapiens, UniProt Q9BYF1); experiment: biochemical
T1 construct: purchased RayBio

[2] = molecular target: T2, ACE2 (Mus musculus, UniProt Q8R0I0); experiment: ACE2 active fluorescence detection kit, influence of SCOL polypeptide on ACE2 enzyme activity in mice liver tissue supernatant; format: biochemical
T2 construct: taking 50 mg mice liver tissue, adding 500 μL lysis solution to perform the homogenization treatment; from tissue; host or cells: mouse liver tissue homogenate supernatant
Experimental: Detection was performed by using Biyuntian ACE2 active fluorescence detection kit; the principle was as follows. […] When the substrate was fully cut by the ACE2, two ends of the polypeptide were separated, two fluorophores were separated, which led to detection of the fluorescence, such that the enzyme activity of the ACE2 protein enzyme can be sensitively detected by the fluorescence detection.
(1) preparation of samples: taking 50 mg mice liver tissue, adding 500 μL lysis solution to perform the homogenization treatment, centrifuging at 4° C. under 12000×g for 5 min, taking the supernatant for next step; […]
(3) adding 2 μL substrates in the 96 hole plate, individually adding 2.2 μL with concentration of 0.004, 0.008, 0.012, 0.016, 0.02 μg/μL of the total concentration in the PCR tubes, adding 8.8 μL supernatant sample in step (1), adding 96.8 μL buffer; and adding 11 μL lysis solution and 96.8 μL buffer in a blank control, mixing, sucking above 98 μL solution by a volley gun and adding to the 96 hole plate with substrates. Performing fluorescence detection by a fluorescence microplate reader after mixing, in particular, the setting temperature was at 37° C., the excitation wavelength was 325 nm, and the emission wavelength was 393 nm. […]

T1 sequence (Q9BYF1 18-740): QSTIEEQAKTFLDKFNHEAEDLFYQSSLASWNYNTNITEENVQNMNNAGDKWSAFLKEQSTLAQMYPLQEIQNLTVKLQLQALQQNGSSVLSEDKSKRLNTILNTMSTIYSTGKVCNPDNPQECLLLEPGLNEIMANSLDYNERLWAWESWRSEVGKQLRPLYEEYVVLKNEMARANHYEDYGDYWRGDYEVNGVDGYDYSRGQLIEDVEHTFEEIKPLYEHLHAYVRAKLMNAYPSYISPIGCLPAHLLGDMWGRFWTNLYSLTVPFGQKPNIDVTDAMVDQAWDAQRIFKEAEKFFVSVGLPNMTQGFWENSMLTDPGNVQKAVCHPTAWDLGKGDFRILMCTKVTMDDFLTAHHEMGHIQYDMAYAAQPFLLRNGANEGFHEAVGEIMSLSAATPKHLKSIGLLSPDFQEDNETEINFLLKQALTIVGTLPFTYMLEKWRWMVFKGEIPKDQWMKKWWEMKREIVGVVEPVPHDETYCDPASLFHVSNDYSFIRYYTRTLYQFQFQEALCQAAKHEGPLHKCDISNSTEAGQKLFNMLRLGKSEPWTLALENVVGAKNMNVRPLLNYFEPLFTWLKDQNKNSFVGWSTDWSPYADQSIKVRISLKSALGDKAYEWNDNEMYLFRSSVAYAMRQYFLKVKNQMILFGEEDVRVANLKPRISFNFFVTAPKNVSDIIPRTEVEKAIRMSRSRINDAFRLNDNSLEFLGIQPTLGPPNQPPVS
T2 sequence (Q8R0I0 18-805): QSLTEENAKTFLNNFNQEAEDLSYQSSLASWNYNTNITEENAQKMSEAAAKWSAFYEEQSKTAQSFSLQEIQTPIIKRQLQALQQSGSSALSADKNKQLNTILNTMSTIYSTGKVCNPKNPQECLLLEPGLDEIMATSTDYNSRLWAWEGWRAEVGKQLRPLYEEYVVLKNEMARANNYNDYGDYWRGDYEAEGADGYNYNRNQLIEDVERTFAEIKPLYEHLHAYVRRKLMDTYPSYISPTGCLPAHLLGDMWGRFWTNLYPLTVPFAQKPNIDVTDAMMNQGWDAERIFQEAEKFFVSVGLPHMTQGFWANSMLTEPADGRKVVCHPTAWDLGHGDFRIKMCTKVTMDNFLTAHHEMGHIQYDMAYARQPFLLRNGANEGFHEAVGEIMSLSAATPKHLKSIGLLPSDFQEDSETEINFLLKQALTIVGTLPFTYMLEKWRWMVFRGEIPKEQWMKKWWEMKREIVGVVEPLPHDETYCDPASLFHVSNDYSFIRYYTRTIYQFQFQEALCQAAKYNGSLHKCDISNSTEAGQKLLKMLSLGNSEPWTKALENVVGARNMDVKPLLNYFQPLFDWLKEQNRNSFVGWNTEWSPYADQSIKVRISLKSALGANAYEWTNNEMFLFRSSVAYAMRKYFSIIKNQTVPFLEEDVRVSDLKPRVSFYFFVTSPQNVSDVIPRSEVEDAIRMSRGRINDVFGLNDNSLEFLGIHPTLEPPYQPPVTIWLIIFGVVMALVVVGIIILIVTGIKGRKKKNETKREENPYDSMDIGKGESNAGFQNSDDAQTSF

`CC[C@H](C)[C@H](N)C(=O)N1CCC[C@H]1C(=O)N[C@@H](CO)C(=O)N[C@H](C(=O)N[C@H](C(=O)N1CCC[C@H]1C(=O)N[C@@H](Cc1ccccc1)C(=O)N1CCC[C@H]1C(=O)N[C@@H](CO)C(=O)N[C@H](C(=O)N[C@H](C(=O)N[C@H](C(=O)N[C@@H](C)C(=O)N[C@H](C(=O)N[C@H](C(=O)N[C@H](C(=O)N[C@@H](CCSC)C(=O)O)[C@@H](C)O)[C@@H](C)O)[C@@H](C)O)C(C)C)[C@@H](C)O)[C@@H](C)O)[C@@H](C)O)[C@@H](C)O` [SCOL peptide, Ile-Pro-Ser-Thr-Thr-Pro-Phe-Pro-Ser-Thr-Thr-Val-Ala-Thr-Thr-Thr-Met] (H-IPSTTPFPSTTVATTTM-OH; N-terminus and C-terminus assumed) was tested, and the “effect on S protein-ACE2 binding compared with the control group” value [1] was “inhibiting effect”, the inhibition at 800 µg/mL ([1]; read-out: highest inhibition rate of binding between S protein and ACE2) was 65% and the “activity of the ACE2 in the samples with the increase of the SCOL polypeptide concentration” value ([2]; 0.004-0.02 μg/μL) was “increasing trend”. For the same molecule, the “highest ACE2 activity relative to the initial activity” value ([2]; SCOL polypeptide concentration 0.02 μg/μL, 37° C.) was 3.76 times.
